Experimental data: paper PMC5062570 (Nature Communications, 2016)
“And” between values parts separate entries of the source, which are not always exact repeats. Identical values can stand only once. “Also recorded” adds a separate entry of the source. Like-named read-outs stand apart in the source and are kept apart here.

Legend:
BACE1 [1] = target: T1, BACE1 (Homo sapiens, UniProt P56817); assay: BACE1 biochemical cellular assay (sAPPβ ELISA in H4 cells overexpressing APP695); type: cell-based; design: endogenous in cells; host or cells: H4 human neuroglioma cells overexpressing human APP695; details: for BACE1 potency increase in live cells: BACE1 enzyme IC50 versus BACE1 cellular IC50; for IC50: sAPPβ ELISA, H4 neuroglioma cells with human wild-type APP
Procedure: Cellular inhibition of BACE1 was determined by measuring sAPPβ, the primary cleavage product of BACE-1, in H4 human neuroglioma cells overexpressing the wild-type human APP695. […] The colorimetric reaction was read by an EnVision plate reader (PerkinElmer).
Target sequence in this assay (P56817 46-501): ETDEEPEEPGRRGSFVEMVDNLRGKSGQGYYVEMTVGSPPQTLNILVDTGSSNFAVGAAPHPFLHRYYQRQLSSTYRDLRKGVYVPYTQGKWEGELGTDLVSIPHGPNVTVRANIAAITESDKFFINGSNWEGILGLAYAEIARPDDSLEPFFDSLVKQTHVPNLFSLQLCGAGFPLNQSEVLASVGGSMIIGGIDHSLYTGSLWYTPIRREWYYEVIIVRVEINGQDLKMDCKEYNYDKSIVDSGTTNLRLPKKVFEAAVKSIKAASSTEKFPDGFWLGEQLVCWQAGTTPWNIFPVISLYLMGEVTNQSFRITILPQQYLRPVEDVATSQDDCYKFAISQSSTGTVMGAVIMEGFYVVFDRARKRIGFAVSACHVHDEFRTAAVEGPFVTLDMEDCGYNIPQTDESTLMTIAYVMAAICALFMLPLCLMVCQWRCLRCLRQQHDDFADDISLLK

BACE1 [2] = target: T1, BACE1; assay: BACE1 purified enzyme fluorescence polarization assay; type: biochemical; design: His (C); made in house; host or cells: CHO-K1; details: purified human enzyme, fluorescence polarization, peptide substrate
Target sequence in this assay (P56817 46-457): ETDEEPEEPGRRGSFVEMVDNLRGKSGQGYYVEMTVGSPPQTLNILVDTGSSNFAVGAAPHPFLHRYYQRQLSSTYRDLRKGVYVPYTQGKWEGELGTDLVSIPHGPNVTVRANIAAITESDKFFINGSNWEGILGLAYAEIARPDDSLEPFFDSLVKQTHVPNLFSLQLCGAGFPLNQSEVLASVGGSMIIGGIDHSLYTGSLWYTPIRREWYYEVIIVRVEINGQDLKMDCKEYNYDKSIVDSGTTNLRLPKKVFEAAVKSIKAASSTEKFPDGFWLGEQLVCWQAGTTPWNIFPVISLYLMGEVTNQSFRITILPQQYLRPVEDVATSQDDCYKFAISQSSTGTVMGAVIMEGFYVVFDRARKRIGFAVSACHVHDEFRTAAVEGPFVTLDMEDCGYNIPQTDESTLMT

CatD [3] = target: CatD (Homo sapiens, UniProt P07339); assay: CatD cellular assay (competition of PF-7802 photolabelling in live ARPE-19 cells); type: cell-based; design: host or cells: ARPE-19; details: for CatD potency increase in live cells: CatD enzyme IC50 versus CatD cellular IC50; for IC50: live ARPE-19 cells, PF-7802 photoprobe 100 nM, 30 min
Procedure: ARPE-19 cells were plated at a density of 1.2 × 10^6 cells per well in six-well dishes 12–24 h before probe labelling. Culture media was removed completely and replaced with 1 ml of the appropriate serum-free media (no supplements) per well. Cells were then pretreated with test compounds at the indicated concentrations for 30 min (0.5% DMSO, 37 °C, 5% CO2). […] Ultraviolet irradiation was performed without culture plate lids for efficient irradiation, and samples were slowly rotated to prevent evaporation. After ultraviolet irradiation, cells were washed twice with Dulbecco's phosphate-buffered saline (DPBS), scraped into DPBS, centrifuged and stored as pellets at −80 °C.
Cells were lysed with sonication on ice in 70 μl DPBS and protein concentrations were determined using a BCA assay (Pierce). Total protein concentrations were then normalized to 1 mg ml^−1 in 50 μl total volume before addition of 5.5 μl click chemistry mix (1 : 3 : 1 : 0.5 volume of 50 mM CuSO4 (Sigma) in H2O : 1.7 mM TBTA (Sigma) in 4:1 t-BuOH:DMSO : 50 mM TCEP (Hampton Research) in dPBS : 10 mM TAMRA-azide (Lumiprobe) in DMSO - mixed immediately before use. Reagent solutions can be premade and stored at 4 °C except for TCEP, which should be made immediately before use). […] All fluorescence gels are presented in greyscale.

[4] = test system: aspartyl proteases (BACE2, cathepsin D, cathepsin E, pepsin and renin); details: assays with purified proteins; cited from earlier work
[5] = test system: retinal pigment epithelium (RPE); assay: Exploratory toxicology, ocular toxicity by retinal histology in dogs; type: in vivo; details: 14 days; for Female ocular toxicity incidence (positive or negative animals / total evaluated) / Female ocular toxicity outcome / Male ocular toxicity incidence (positive or negative animals / total evaluated) / Male ocular toxicity outcome: dog; for Retinal finding by fluorescence microscopy: dogs
Procedure: (§1) Naive […] beagle dogs (Canis lupus familiaris, >8 months old, n=1 male and n=1 female per group) received daily oral dosing of test compounds or vehicle for 14 days at the indicated concentrations. The doses were prepared in a solution of 0.5% methylcellulose and hydroxypropyl methylcellulose acetate succinate (high fine grade) and delivered in a volume of 5 ml kg^−1 per day. Blood samples for bioanalytical analysis were collected in K2EDTA tubes via jugular vessel. Plasma was isolated after centrifugation and stored at –20 °C before analysis. Animals were killed via intravenous administration of barbiturate followed by exsanguination ∼3 h after the final dose on day 15.

[6] = Plasma exposure (average unbound plasma concentration) in dogs; type: in vivo; details: both sexes, beagle, oral, dog, read-out: Avg Cp,u parent
Procedure: as §1
Plasma samples were analysed after protein precipitation by treating 20 μl of sample matrix with 200 μl of acetonitrile containing internal standard. All samples were centrifuged at 3,000 r.p.m. for 5 min. Then 100 μl of supernatant was transferred to a clean plate and evaporated to dryness under N2. Samples were reconstituted in 200 μl of 80:20 (v:v) acetonitrile:water. Samples were analysed on Waters Acquity UPLC connected to AB Sciex API5500 QTrap MS/MS.
Plasma protein binding was determined in the Rapid Equilibrium Device (RED, Thermo Scientific). […] Samples were protein-precipitated with acetonitrile containing internal standard, and the resulting supernatant was analysed by LC-MS/MS.

[7] = test system: mRNA levels (CTSD, CTSB, CTSF, BACE1, GBA, TFEB) in ARPE-19 cells; assay: qRT-PCR of inhibitor-treated ARPE-19 cells; type: cell-based, human; details: 7 days
CatD [8] = details: cited from earlier work
CatE = details: purified aspartyl proteases; not previously disclosed

Sequence of CatD (Homo sapiens, UniProt P07339) (P07339 169-412 limits assumed): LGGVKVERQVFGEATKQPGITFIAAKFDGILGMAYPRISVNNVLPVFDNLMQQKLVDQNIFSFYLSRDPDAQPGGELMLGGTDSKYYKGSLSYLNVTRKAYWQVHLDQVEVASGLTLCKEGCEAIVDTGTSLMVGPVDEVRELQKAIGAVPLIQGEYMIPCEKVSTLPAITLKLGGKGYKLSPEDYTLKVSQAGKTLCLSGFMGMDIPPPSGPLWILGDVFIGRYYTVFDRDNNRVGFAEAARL
Sequence of CatD (Homo sapiens, UniProt P07339) (P07339 65-162 limits assumed): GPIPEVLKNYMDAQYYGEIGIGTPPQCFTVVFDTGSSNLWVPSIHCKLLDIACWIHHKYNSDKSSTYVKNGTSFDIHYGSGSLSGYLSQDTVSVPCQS

SMILES: Cc1cc([C@H]2C[C@H]3[C@@H](CF)SC(N)=N[C@@]3(c3ccc(F)cc3F)CO2)on1 [PF-3195]
- BACE1 potency increase in live cells (BACE1 [1]): 4.1 x
- IC50 (BACE1 [1]): 15 nM
- IC50 (BACE1 [2]): 62 nM
- CatD potency increase in live cells (CatD [3]): 17 x
- IC50 (CatD [3]): 540 nM

SMILES: Cc1cc([C@H]2C[C@H]3[C@@H](C)SC(N)=N[C@@]3(c3ccc(F)cc3F)CO2)on1 [PF-9283]
- Selectivity for BACE1 over cathepsins D and E [4]: more than 200 fold
- BACE1 potency increase in live cells (BACE1 [1]): 12 x
- IC50 (BACE1 [1]): 6 nM
- Female ocular toxicity incidence (positive or negative animals / total evaluated) ([5]; 3 mg kg-1 once daily): 1/1
- Female ocular toxicity outcome ([5]; 3 mg kg-1 once daily): Neg (negative (neg) if there was no ocular abnormality observed)
- Male ocular toxicity incidence (positive or negative animals / total evaluated) ([5]; 3 mg kg-1 once daily): 1/1
- Male ocular toxicity outcome ([5]; 3 mg kg-1 once daily): Neg (negative (neg) if there was no ocular abnormality observed)
- Female ocular toxicity incidence (positive or negative animals / total evaluated) ([5]; 9 mg kg-1 once daily): 1/1
- Female ocular toxicity outcome ([5]; 9 mg kg-1 once daily): Neg (negative (neg) if there was no ocular abnormality observed)
- Male ocular toxicity incidence (positive or negative animals / total evaluated) ([5]; 9 mg kg-1 once daily): 1/1
- Male ocular toxicity outcome ([5]; 9 mg kg-1 once daily): Pos
- Retinal finding by fluorescence microscopy ([5]; 3 mg kg-1 daily): not after 3 mg kg-1 dosing
- Retinal finding by fluorescence microscopy ([5]; 9 mg kg-1 daily): accumulated autofluorescent
- concentration at 14 days ([6]; 3 mg kg-1 once daily): 32 nM
- concentration at 14 days ([6]; 9 mg kg-1 once daily): 401 nM
- IC50 (BACE1 [2]): 74 nM
- mRNA level changes (qRT-PCR) [7]: did not display changes in mRNA levels; also recorded: no changes in CatD mRNA levels
- CatD potency difference between cell-free enzyme and cellular assays (CatD [3]): ~86 fold
- CatD potency increase in live cells (CatD [3]): 86 x
- BACE1 selectivity over CatD in cells (CatD [3]; cellular inhibition of BACE1 cleavage of APP versus inhibition of CatD labelling by PF-7802): 23 fold
- IC50 (CatD [3]): 140 nM and < 300 nM
- selectivity ratio (CatD [8]): 210
- Fold selectivity for BACE1 over CatE (CatE): 320 fold
